Results on two compounds are retold here after ChEMBL document CHEMBL1129914, “Synthesis and inhibitory effect of a sialyl lewis X-acrylamide homopolymer at preventing cell adhesion” (Bioorg Med Chem Lett, 1997).

For experiment [1], the target named is T1, E-selectin (Homo sapiens, UniProt P16581).
T1 sequence (P16581 whole entry): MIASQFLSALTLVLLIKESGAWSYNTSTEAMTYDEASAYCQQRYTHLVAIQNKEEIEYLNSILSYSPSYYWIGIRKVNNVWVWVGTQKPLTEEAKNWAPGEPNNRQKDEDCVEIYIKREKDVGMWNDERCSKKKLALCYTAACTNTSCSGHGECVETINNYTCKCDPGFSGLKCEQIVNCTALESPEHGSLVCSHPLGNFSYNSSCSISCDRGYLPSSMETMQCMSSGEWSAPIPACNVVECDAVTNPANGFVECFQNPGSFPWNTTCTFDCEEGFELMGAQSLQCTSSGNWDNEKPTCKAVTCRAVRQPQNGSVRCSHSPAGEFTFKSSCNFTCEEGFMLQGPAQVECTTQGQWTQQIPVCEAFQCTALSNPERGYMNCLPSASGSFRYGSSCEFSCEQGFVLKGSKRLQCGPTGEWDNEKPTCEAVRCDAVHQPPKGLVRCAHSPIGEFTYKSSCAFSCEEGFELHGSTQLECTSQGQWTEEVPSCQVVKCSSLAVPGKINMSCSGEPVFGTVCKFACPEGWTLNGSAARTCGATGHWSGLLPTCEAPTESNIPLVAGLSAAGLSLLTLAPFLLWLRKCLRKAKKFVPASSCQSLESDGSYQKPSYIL
As to the kind of experiment: Tested in vitro to inhibit cell adhesion of HL-60 cells to recombinant human soluble Selectin E. The class given is cell-based.

Experiment [2] relates to Mus musculus. As to the kind of experiment: Tested in vivo for the inhibition of LTA -induced neutrophil accumulation into pleural cavity of mice at a dose of 30 mg/kg. The class given is functional.

As to `CCO[C@@H]1O[C@@H](CO)[C@@H](O[C@@H]2O[C@@H](CO)[C@H](O)[C@H](O[C@]3(C(=O)O)C[C@@H](O)[C@@H](NC(C)=O)[C@H]([C@H](O)[C@H](O)CO)O3)[C@@H]2O)[C@H](O[C@@H]2O[C@@H](C)[C@@H](O)[C@H](O)[C@@H]2O)[C@@H]1NC(C)=O`, the IC50 (commonly the concentration needed to halve the response being measured) in experiment [1] came out at 1500 µg/mL. Besides, in experiment [2], the inhibition in vivo (usually the share of the control response that was lost under treatment) at 30 mg/kg came to 38%.
The like results for `C=CC(=O)NCCCCCCO[C@@H]1O[C@@H](CO)[C@@H](O[C@@H]2O[C@@H](CO)[C@H](O)[C@H](O[C@]3(C(=O)[O-])C[C@@H](O)[C@@H](NC(C)=O)[C@H]([C@H](O)[C@H](O)CO)O3)[C@@H]2O)[C@H](O[C@@H]2O[C@@H](C)[C@@H](O)[C@H](O)[C@@H]2O)[C@@H]1NC(=O)c1ccc2ccccc2c1.[Na+]` were, in that order, 100 µg/mL and 35%.
